From paper PMC11944515, “Host-Mediated Antimicrobial Effects and NLRP3 Inflammasome Modulation by Caulerpin and Its Derivatives in Macrophage Models of Mycobacterial Infections” (Microorganisms, 2025)
Where two headings read alike, the source gives them in different places.

Columns and labels:
RAW 264.7 cells = test: Direct effects on RAW 264.7 cell viability (MTT); assay type: cell-based, murine
Experimental: The direct effects of CP and its analogues on RAW 264.7 viability were evaluated using the MTT method. RAW 264.7 cells were seeded at 1 × 10^4 cells/well (for 24 h incubation) and 5 × 10^3 cells/well (for 48 h incubation) and incubated overnight to allow adhesion. The culture medium was carefully aspirated and replaced with 100 μL DMEM plus 100 μL of test compound solutions, yielding final concentrations ranging from 3.25 to 30 µM (DMSO 1%, v/v). After 24 or 48 h of exposure to test compounds, cells were incubated with MTT (0.5 mg/mL) for 3 h. The resulting formazan crystals were dried, dissolved in DMSO, and absorbance was measured at 570 nm using a microplate reader (EL800, BioTek, Winooski, VT, USA). The precipitated purple formazan crystals were directly proportional to the number of metabolically active viable cells. The cell viability was then calculated as: Cell viability (%) = (Sample absorbance/Control absorbance) × 100. Data were expressed as mean of cell viability ± standard error of the mean from three to four independent experiments performed in triplicate.

Vero E6 cells [1] = test: Cytotoxicity on Vero E6 cells (MTT); assay type: cell-based, monkey; settings: 24 h; for effect on Vero E6 cell viability: 30 to 120 µM, MTT; for IC50: Primates, Vero C1008, estimated
Experimental: Cytotoxicity was evaluated using the MTT method. For this purpose, two cell lines were tested: Vero E6 and HepG2. Both cell lines were seeded at 1 × 10^4 cells/well in 96-well microtiter plates and incubated overnight to adhere. The culture medium was carefully aspirated and replaced with 100 µL DMEM plus 100 µL of test compound solutions (CP, CA, and DE), yielding final concentrations ranging from 30 to 120 µM (1% DMSO, v/v). Cells were incubated with test compounds for 24 h at 37 °C in a 5% CO2 atmosphere. MTT solution (0.5 mg/mL) was subsequently added, and cells were incubated for an additional 3 h. The resulting formazan crystals were dried at room temperature for 24 h and dissolved in DMSO. Absorbance was measured at 570 nm (microplate reader EL800, BioTek, Winooski, VT, USA). Cell viability was calculated as previously described in the RAW 264.7 cell viability assay section.

Artemia salina = Artemia salina toxicity test; settings: 24 h; for effect on A. salina nauplii survival: 30 to 120 µM; for IC50: Artemia salina, estimated
Experimental: Artemia salina (brine shrimp) survival was determined after incubation with CP and its analogues following the method described by Magalhães et al.. A. salina cysts were purchased from a local aquarium store and hatched (0.5 g cysts/L) in modified artificial seawater (35 g/L sea salt) supplemented with dried yeast (6 mg/L). Aeration was provided using an aquarium air pump connected to a line extending to the bottom of the hatching vessel. After 2 days incubation (in a 23–25 °C room), nauplii were collected using a Pasteur pipette after attracting the organisms to one side of the vessel with a light source. Test compounds were serially diluted 2-fold (ranging from 30 to 120 µM) in 96-well microplates containing 100 µL of 0.9% NaCl solution with dried yeast (6 mg/L). All experiments were performed in quadruplicate with a final DMSO concentration of 2.5%. Vehicle control wells (with 2.5% DMSO) were included in the experiment. A suspension containing 8–12 nauplii in 100 µL was added to each well, and the plates were incubated at 23–25 °C for 24 h. The number of live and dead (non-motile) nauplii in each well was then counted under a microscope. Nauplii were considered dead if they remained immobile for 10 s under light exposure. The survival percentage for each test group was calculated relative to the control group (2.5% DMSO), which was set as 100%.

M. tuberculosis H37Ra = test: M. tuberculosis susceptibility by CFU enumeration; assay type: cell-based, Mycobacterium tuberculosis; settings: H37Ra, 48 h, CFU
Experimental: Next, CP, CA, and DE were diluted in Middlebrook 7H9 plus 10% OADC for the cellular susceptibility assay with M. tuberculosis H37Ra to yield concentrations up to 15 µM, 30 µM, and 15 µM, respectively. RIF at 0.03 µM was used as a positive control. The final DMSO concentration in all wells was 2.5%. The M. tuberculosis suspension was diluted in 7H9 plus 10% OADC to achieve an optical density of 0.006 at 595 nm, and 100 μL was then added to each well. Plates were covered, sealed with parafilm, and incubated at 37 °C for 48 h. After incubation, aliquots were removed, diluted, and plated in Middlebrook 7H10 agar plus 10% OADC. Plates were incubated at 37 °C for 4 weeks, and CFU were counted. CFU numbers were expressed as log10(CFU/mL).

IL-1β = IL-1β production in M. smegmatis-infected RAW 264.7 cells (ELISA); assay type: cell-based, murine; settings: 15 μM, 24 h, M. smegmatis MOI 1:1, vs infected control
Experimental: (§1) IL-1β, IL-10, and TNF-α levels in the culture supernatant were determined by sandwich enzyme-linked immunosorbent assay as per the manufacturer’s instructions. Optical density was read at 450 nm using a microplate spectrophotometer (microplate reader EL800, BioTek, Winooski, VT, USA).

HepG2 cells = system: HepG2 cells; design: method as in PMID 32579063; settings: 15.80 to 500 µg/mL over 24 h; cited from earlier work
NLRP3 inflammasome = test: NLRP3 evaluation by flow cytometry in M. smegmatis-infected RAW 264.7 cells; assay type: cell-based, murine; settings: 15 μM, 24 h
Experimental: Cells were placed in a 96-well plate (U bottom) 24 h after treatment in culture. Then, cells were fixed by Cytofix (BD Cytofix™, Franklin Lakes, NJ, USA) and permeabilized by Perm Buffer (BD Phosflow™, San Diego, CA, USA) for 30 min each. Cells were subsequently labeled with an unconjugated anti-NLRP3 antibody, according to the manufacturer’s instructions (BD Biosciences, San Diego, CA, USA). Finally, anti-rat IgG2a (PE) was added for NLRP3 analysis and cells were suspended in PBS and evaluated in a BD Accuri C6 Plus flow cytometer.
First, macrophages were visualized using size (FSC) and granularity (SSC) parameters, and a gate was performed in the cell population. The macrophages were then analyzed by measuring the median fluorescence intensity (MFI) corresponding to antibody labeling. MFI data were normalized to the control group, which was set to 100%.

Vero E6 cells [2] = settings: cited from earlier work
[3] = system: IL-8, IL-6, and TNF-α cytokines; design: method as in PMID 34884957; settings: pretreatment, compared with untreated control; cited from earlier work
[4] = system: IFN-γ, IL-6, and TNF-α levels; design: method as in PMID 30205459; settings: doses of 40 mg/kg, murine model of peritonitis and ulcerative colitis; cited from earlier work
TNF-α = TNF-α production in M. smegmatis-infected RAW 264.7 cells (ELISA); assay type: cell-based, murine; settings: 15 μM, 24 h, M. smegmatis MOI 1:1, vs infected control
Experimental: as §1

Structure (SMILES) | effect on RAW 264.7 cell viability (RAW 264.7 cells; 24 h incubation, 3.25 to 30 µM) | effect on RAW 264.7 cell viability (RAW 264.7 cells; 48 h incubation) | effect on Vero E6 cell viability (Vero E6 cells [1]) | IC50 (Vero E6 cells [1]) | effect on A. salina nauplii survival (Artemia salina) | IC50 (Artemia salina) | inhibitory concentration against M. tuberculosis (M. tuberculosis H37Ra) | reduction in IL-1β production (IL-1β) | anticancer activity in HepG2 cells (HepG2 cells) | reduction of NLRP3 expression (MFI) (NLRP3 inflammasome) | effect on Vero E6 viability (Vero E6 cells [2]; 589.3 µg/mL) | effect on Vero E6 viability (Vero E6 cells [2]; 50 to 1000 µM for 72 h) | effect on IL-8, IL-6, and TNF-α expression [3] | effect on IFN-γ, IL-6, and TNF-α levels [4] | reduction in TNF-α production (TNF-α)
O=C(O)C1=Cc2c([nH]c3ccccc23)C(C(=O)O)=Cc2c1[nH]c1ccccc21 [CA, caulerpinic acid] | did not affect viability at any of the concentrations tested | did not affect cell viability at any concentration evaluated | did not significantly reduce cell viability | > 120 µM | did not affect nauplii survival rates | > 120 µM | greater than 30 μM | – | – | – | – | – | – | – | –
COC(=O)/C1=C/c2c([nH]c3ccccc23)/C(C(=O)OC)=C\c2c1[nH]c1ccccc21 [CP, Caulerpin] | affected cell viability at the concentration of 30 μM | affected cell viability at the 2 highest concentrations tested, 15 and 30 μM | did not significantly reduce cell viability | > 120 µM | did not affect nauplii survival rates | > 120 µM | greater than 15 μM | 69.35% | exhibited anticancer activity in HepG2 cells | 29.12% | maintained their viability | no effect on Vero E6 viability | reduced expression of IL-8, IL-6, and TNF-α cytokines | reduced IFN-γ, IL-6, and TNF-α levels | 34.07%
CCOC(=O)/C1=C/c2c([nH]c3ccccc23)/C(C(=O)OCC)=C\c2c1[nH]c1ccccc21 [DE, (6E,13E)-diethyl 5,12-dihydrocycloocta[1,2-b:5,6-b′]diindole-6,13-dicarboxylate] | affected cell viability at the concentration of 30 μM | did not affect cell viability at any concentration evaluated | did not significantly reduce cell viability | > 120 µM | did not affect nauplii survival rates | > 120 µM | greater than 15 μM | 59.82% | – | 39.81% | – | – | – | – | 56.94%
